Experiment: Purity of filtrates / degradation in bio-relevant media (FeSSIF)
Format: physicochemical
Conditions: for HPLC Purity API, Sample 1 / impurity RRT 1.74 / impurity RRT 1.91 / impurity RRT 1.95 / HPLC Purity API, Sample 2 / impurity RRT 1.09: FeSSIF filtrate, 220 nm; for HPLC Purity API, Sample 1 / impurity RRT 1.74 / impurity RRT 1.91 / impurity RRT 1.95 / impurity RRT 1.09: Sample 1; for Filtrate Purity 220 nm-24 h: 37° C., starting purity 99.26%
Description: About 15 mg of freebase Form II was weighed into sample vials, and then 3 mL of each media was added to make suspensions, respectively. At 0.5, 2 and 24 hours, about 1 mL of each suspension was filtered, the filtrate was analyzed by HPLC and pH, and the filter cake was analyzed by XRPD. Duplicated samples were prepared for each media.
Compared to control pH buffers, the solubility increased to ˜20 μg/mL in FaSSIF and ˜100 μg/mL in FeSSIF, possibly due to the solubilization effect of bile salt. […] Compared to FaSSIF, concentration of bile salt is 5-fold in FeSSIF. The degradation issue in FeSSIF was confirmed with another two batches (Lot #3 and Lot #2) of freebase Form II at 0.5-8 hours, as summarized in Table 12 and Table 13. Several impurities increased rapidly with time.
HPLC analysis was performed with an Agilent HPLC 1260 series instrument.

purity of filtrates (FeSSIF): decreased rapidly | HPLC Purity API, Sample 1 (0.5 hr, listed as Lot# 2): 96.72 area % | impurity RRT 1.74 (0.5 hr, listed as Lot# 2): 0.33 area % | impurity RRT 1.91 (0.5 hr, listed as Lot# 2): 1.00 area % | impurity RRT 1.95 (0.5 hr, listed as Lot# 2): 0.32 area % | HPLC Purity API, Sample 1 (0.5 hr, listed as Lot# 3): 92.74 area % | impurity RRT 1.74 (0.5 hr, listed as Lot# 3): 0.27 area % | impurity RRT 1.91 (0.5 hr, listed as Lot# 3): 0.72 area % | impurity RRT 1.95 (0.5 hr, listed as Lot# 3): 0.24 area % | HPLC Purity API, Sample 2 (0.5 hr, listed as Lot# 2): 96.89 area % | HPLC Purity API, Sample 2 (0.5 hr, listed as Lot# 3): 92.57 area % | HPLC Purity API, Sample 1 (2 hr, listed as Lot# 2): 80.67 area % | impurity RRT 1.09 (2 hr, listed as Lot# 2): 1.18 area % | impurity RRT 1.74 (2 hr, listed as Lot# 2): 1.52 area % | impurity RRT 1.91 (2 hr, listed as Lot# 2): 5.63 area % | impurity RRT 1.95 (2 hr, listed as Lot# 2): 0.89 area % | HPLC Purity API, Sample 1 (2 hr, listed as Lot# 3): 91.52 area % | impurity RRT 1.09 (2 hr, listed as Lot# 3): 0.22 area % | impurity RRT 1.74 (2 hr, listed as Lot# 3): 0.35 area % | impurity RRT 1.91 (2 hr, listed as Lot# 3): 1.09 area % | impurity RRT 1.95 (2 hr, listed as Lot# 3): 0.39 area % | HPLC Purity API, Sample 2 (2 hr, listed as Lot# 2): 77.22 area % | HPLC Purity API, Sample 2 (2 hr, listed as Lot# 3): 90.33 area % | HPLC Purity API, Sample 1 (4 hr, listed as Lot# 2): 65.06 area % | impurity RRT 1.09 (4 hr, listed as Lot# 2): 3.56 area % | impurity RRT 1.74 (4 hr, listed as Lot# 2): 2.64 area % | impurity RRT 1.91 (4 hr, listed as Lot# 2): 9.12 area % | impurity RRT 1.95 (4 hr, listed as Lot# 2): 1.67 area % | HPLC Purity API, Sample 1 (4 hr, listed as Lot# 3): 84.44 area % | impurity RRT 1.09 (4 hr, listed as Lot# 3): 1.00 area % | impurity RRT 1.74 (4 hr, listed as Lot# 3): 0.82 area % | impurity RRT 1.91 (4 hr, listed as Lot# 3): 3.55 area % | impurity RRT 1.95 (4 hr, listed as Lot# 3): 0.69 area % | HPLC Purity API, Sample 2 (4 hr, listed as Lot# 2): 60.63 area % | HPLC Purity API, Sample 2 (4 hr, listed as Lot# 3): 77.77 area % | HPLC Purity API, Sample 1 (8 hr, listed as Lot# 2): 50.99 area % | impurity RRT 1.09 (8 hr, listed as Lot# 2): 6.24 area % | impurity RRT 1.74 (8 hr, listed as Lot# 2): 5.16 area % | impurity RRT 1.91 (8 hr, listed as Lot# 2): 8.77 area % | impurity RRT 1.95 (8 hr, listed as Lot# 2): 3.62 area % | HPLC Purity API, Sample 1 (8 hr, listed as Lot# 3): 66.91 area % | impurity RRT 1.09 (8 hr, listed as Lot# 3): 4.10 area % | impurity RRT 1.74 (8 hr, listed as Lot# 3): 2.41 area % | impurity RRT 1.91 (8 hr, listed as Lot# 3): 7.91 area % | impurity RRT 1.95 (8 hr, listed as Lot# 3): 1.57 area % | HPLC Purity API, Sample 2 (8 hr, listed as Lot# 2): 47.77 area % | HPLC Purity API, Sample 2 (8 hr, listed as Lot# 3): 57.55 area % | Filtrate Purity 220 nm-24 h (FeSSIF): 55% | Filtrate Purity 220 nm-24 h (SGF): 99.28%
SMILES: CNC(=O)c1ccc(N2CCN(Cc3cnc4cc(C5CC5)c(=O)[nH]c4c3)CC2)cn1 [Freebase Form II, 5-(4-((7-cyclopropyl-6-oxo-5,6-dihydro-1,5-naphthyridin-3-yl)methyl)piperazin-1-yl)-N-methylpicolinamide]

From patent US20240174669A1, “CRYSTALLINE FORMS OF A PARP1 INHIBITOR” (XinThera, Inc., priority 2022, published 2024)
